This is an account of results in patent US20110236886A1, “PATHOGENICITY DETERMINANTS WHICH CAN BE USED AS TARGETS FOR DEVELOPING MEANS FOR PREVENTING AND CONTROLLING BACTERIAL INFECTIONS AND/OR SYSTEMIC DISSEMINATION” (priority 2002, published 2011).

In one assay the test system is S. agalactiae NEM316. Nature of the assay: Disk diffusion sensitivity to cationic antimicrobial peptides, wild type strain. Format: cell-based, Streptococcus agalactiae. The settings on record: blood agar plates, 18 hours at 37° C., disc content colistin 50 μg, polymixin B 10 μg. How it is done: (§1) The sensitivity of wild type S. agalactiae NEM316 and DltD mutant to cationic antimicrobial peptides was measured by using a disk diffusion methods. The 2 strains were grown on blood agar plates and incubated for 18 hours at 37° C. Each strain was tested using colistin (50 μg) and polymixin (10 μg) disks. Sensitivity or resistance of NEM316 strain and the DltD mutant to each compound was determined by the size of the growth inhibition area around disk.
On the technique in general: A growth-free zone around the sample is the usual read-out of agar diffusion tests.

Assay [1] deals with DltD mutant of S. agalactiae NEM316. Nature of the assay: Disk diffusion sensitivity to cationic antimicrobial peptides, DltD mutant. Format: cell-based, Streptococcus agalactiae. The following applies: for Inhibition area (mm) Mutant DltD: blood agar plates, 18 hours at 37° C., disc content colistin 50 μg, polymixin B 10 μg; for Sensitivity of the DltD mutant to the peptide compared with wild type: result in words. How it is done: as §1

On to colistin, for which, in the assay with S. agalactiae NEM316, the “Inhibition area (mm) NEM316” value is given as 0 mm. For the same substance, in assay [1], the “Inhibition area (mm) Mutant DltD” value worked out at 14 mm and the “Sensitivity of the DltD mutant to the peptide compared with wild type” value is recorded as “increased sensitivity”.
Taken in the same sequence, the figures for polymyxin B [Polymixin B] were 0 mm, 14 mm and “increased sensitivity”.
